# Data from PMC12396409, “Screening and hit evaluation of a microbial metabolite library against the pathogenic Plasmodium falciparum and Toxoplasma gondii parasites” (International Journal for Parasitology: Drugs and Drug …, 2025).
# Where a name gives a salt, the structure may show the parent alone. Read-outs that look alike come from different tables or passages of the source.
# Experiments:
# [1] = tested on: P. falciparum 3D7 parasites; experiment: P. falciparum growth inhibition assay, 1-cycle (72 h treatment), SYBR DNA staining (library screen at 2 μg/mL and dose-response); type: cell-based, Plasmodium falciparum
# [2] = tested on: T. gondii RH strain (RH-Tub-eYFP) tachyzoites; experiment: microbe, parasite or virus in culture; type: cell-based, Toxoplasma gondii; settings: for percent parasite growth at 2 µg/mL: Toxoplasma gondii; for Mean / Replicate 1 / Replicate 2: 2 μg/mL; for Mean: mean of both replicates, growth (% of control); for Replicate 1 / Replicate 2: values are growth (% of control)
# [3] = tested on: P. falciparum 3D7 parasites; experiment: P. falciparum growth inhibition assay, 2-cycle (120 h treatment), delayed-death screen and dose-response; type: cell-based, Plasmodium falciparum
# [4] = active against the parasite at 2 μg/mL, no anti-tumour (NS-1) or cytotoxic (fibroblast) activity at 5 μg/mL
compound,measurement,setting,value
CCCCCCCC(=O)N[C@H]1CCOC1=O [BIA-O1496],Pf_72h_%Growth_Rep1,"[1]; P. falciparum 3D7, 72 h, parasite screen at 2 μg/mL, % growth, replicate 1",81.24%
same,Pf_72h_%Growth_Rep2,"[1]; P. falciparum 3D7, 72 h, parasite screen at 2 μg/mL, % growth, replicate 2",83.86%
same,Tg_72h_%Growth_Rep1,"[2]; T. gondii, 72 h, parasite screen at 2 μg/mL, % growth, replicate 1",127.37%
same,Tg_72h_%Growth_Rep2,"[2]; T. gondii, 72 h, parasite screen at 2 μg/mL, % growth, replicate 2",91.78%
same,Pf_120h_%Growth_Rep1,"[3]; P. falciparum 3D7, 120 h, parasite screen at 2 μg/mL, % growth, replicate 1",82.04%
same,Pf_120h_%Growth_Rep2,"[3]; P. falciparum 3D7, 120 h, parasite screen at 2 μg/mL, % growth, replicate 2",138.56%
C=C[C@]1(C)C[C@@H](O)[C@]2(C)[C@H](C)CC[C@]3(CCC(=O)[C@H]32)[C@@H](C)[C@@H]1O [Mutilin],Screen (P. falciparum),"[1]; library screen at 2 μg/mL, 3D7, 72 h, DD from the 120 h timepoint","I, I"
same,Screen (T. gondii),"[2]; library screen at 2 μg/mL, RH strain, 72 h","I, I"
O=C(O)c1cccc(C(=O)O)n1 [Dipicolinic acid],percent parasite growth at 2 µg/mL,"[2]; 72 h, library screen at 2 μg/mL, 72 h, % growth, replicate 1, read-out: Tg_72h_%Growth_Rep1",112%
same,percent parasite growth at 2 µg/mL,"[2]; 72 h, library screen at 2 μg/mL, 72 h, % growth, replicate 2, read-out: Tg_72h_%Growth_Rep2",89.5%
COC(=O)c1ccc(CCCCCCCCCCc2ccc(C(=O)OC)nc2)cn1 [Penicolinate A],Mean,"[2]; T. gondii, 72 h",44.53
same,Replicate 1,"[2]; T. gondii, 72 h",16.04
same,Replicate 2,"[2]; T. gondii, 72 h",73.01
"CCC[C@@H]1C[C@@H](C(=O)N[C@@H]([C@H]2O[C@H](SC)[C@H](O)[C@@H](O)[C@H]2O)[C@H](C)Cl)N(C)C1 [Clindamycin hydrochloride, reference compound]",percent parasite growth at 2 µg/mL,"[2]; 72 h, read-out: Tg_72h_%Growth_Rep1",21.7%
same,percent parasite growth at 2 µg/mL,"[2]; 72 h, read-out: Tg_72h_%Growth_Rep2",28.6%
"CN(C)c1ccc(O)c2c1C[C@H]1C[C@H]3[C@H](N(C)C)C(O)=C(C(N)=O)C(=O)[C@@]3(O)C(O)=C1C2=O [Minocycline HCl, reference compound]",Mean,"[2]; T. gondii, 72 h",21.66
same,Replicate 1,"[2]; T. gondii, 72 h",5.81
same,Replicate 2,"[2]; T. gondii, 72 h",37.51
CC(C)=CCC[C@H](C)[C@H]1CC[C@]2(C)C[C@H]3[C@H](C(=O)C[C@@]3(C)O)/C(C=O)=C\C[C@@H]12 [Ophiobolin C],Mean,"[2]; T. gondii, 72 h",48.72
same,Replicate 1,"[2]; T. gondii, 72 h",7.63
same,Replicate 2,"[2]; T. gondii, 72 h",89.80
"CN[C@@H]1C[C@H]2O[C@@](C)([C@@H]1OC)n1c3ccccc3c3c4c(c5c6ccccc6n2c5c31)C(=O)NC4=O [Oxostaurosporine, 7-]",Mean,"[2]; T. gondii, 72 h",37.90
same,Replicate 1,"[2]; T. gondii, 72 h",57.26
same,Replicate 2,"[2]; T. gondii, 72 h",18.54
CO[C@@H]1[C@@H](O[C@@H]2O[C@H](C)[C@@H](O[C@H]3C[C@@](C)(O)[C@@H](OC(=O)CC(C)C)[C@H](C)O3)[C@H](N(C)C)[C@H]2O)[C@@H](CC=O)C[C@@H](C)[C@@H](O)/C=C/C=C/C[C@@H](C)OC(=O)C[C@H]1O [Leucomycin A1],1) Growth (%) at 72 h,"[1]; P. falciparum, 2 μg/mL, 72 h",58.63%
same,2) Growth (%) at 120 h,"[3]; P. falciparum, 2 μg/mL, 120 h",11.56%
same,3) Fold change (72 h/120 h),"[3]; P. falciparum, growth at 72 h / growth at 120 h, 2 μg/mL",5.1
"CC(=O)O[C@@H]1[C@@H]2O[C@H]2[C@@](C)(O)C(=O)[C@@H](C)C/C=C/[C@H]2[C@H](O)C(C)=C(C)[C@H]3[C@H](Cc4ccccc4)NC(=O)[C@@]123 [19,20-epoxycytochalasin C]",selectivity for P. falciparum in the screens,[1]; [4],active selectively against P. falciparum and T. gondii
same,selectivity for T. gondii in the screens,[2]; [4],active selectively against P. falciparum and T. gondii
CN1CC[C@]2(c3cccc4c3N[C@H]3N(C)CC[C@@]43[C@]34CCN(C)[C@H]3Nc3ccccc34)c3ccccc3N[C@H]12 [Hodgkinsine B],Mean,"[2]; T. gondii, 72 h",34.28
same,Replicate 1,"[2]; T. gondii, 72 h",8.86
same,Replicate 2,"[2]; T. gondii, 72 h",59.70
